Data from patent US20240382607A1 (priority 2021, published 2024).

Legend:
[1] = system: SKBR3 tumor cells (HER2+); assay: In vitro cytotoxic activity screening, CTG assay, SKBR3; assay type: cell-based
Procedure: (§1) In this experiment, the ATP content was determined using CTG to reflect the survival condition of the tumor cells. […] The killing effect of the toxin molecule was then assayed according to this condition.
(§2) According to the purpose of the experiment, two disease models of breast cancer and NSCLC were selected, and three cell strains of SKBR3 tumor cells (HER2+, ATCC, Cat #HTB-30), MDA-MB-468 (HER2-, ATCC, Cat #HTB-132) and A549 (human non-small cell lung cancer cells, ATCC, Cat #CCL-185) were selected for screening.
(§3) The cells were counted, and 4.3×10^5, 7.2×10^5 and 11.5×10^5 cells were each added to a culture solution to give a final volume of 26 mL. 180 μL of cell suspension was added to each well in columns 2 to 11 of a 96-well plate (Corning, Cat #3903) to give cell densities of 3K, 5K and 8K per well. Wells in column 12 were each filled with 200 μL of culture solution and the remaining wells were each filled with PBS. The SKBR3 and MDA-MB-468 cells were subjected to the same operations described above. […] 2 mM stock solution (stock solution diluted 10-fold in DMSO) was prepared in column 1 of drug preparation plate 1, and then 10-fold gradient dilution in DMSO was performed through column 10, and the wells in column 11 were filled with DMSO. […] The absorption value was read using a microplate reader and IC50 was calculated.

MDA-MB-468 (HER2-) = assay: In vitro cytotoxic activity screening, CTG assay, MDA-MB-468; assay type: cell-based
Procedure: as §1, §2, §3

[2] = Pharmacokinetic experiment for beagles, intravenous administration; conditions: 0.5 mg/kg
Procedure: (§4) Plasma samples were stored in a refrigerator at −80° C. prior to testing.
as §4

[3] = system: A549 (human non-small cell lung cancer cells); assay: In vitro cytotoxic activity screening, CTG assay, A549; assay type: cell-based
Procedure: as §1, §2, §3

SMILES: C=C1C[C@@H]2CC[C@@]34C[C@H]5O[C@H]6[C@@H](O3)[C@H]3O[C@H](CC[C@@H]3O[C@H]6[C@H]5O4)CC(=O)C[C@@H]3[C@@H](OC)[C@@H](C[C@@H](CN)OC)O[C@H]3C[C@H]3O[C@@H](CC[C@@H]1O2)C[C@@H](C)C3=C [Compound 1]
- IC50 ([1]; Homo sapiens, SK-BR-3, read-out: IC50 (nM) SKBR3): 0.205 nM
- Maximum inhibition rate (%) SKBR3 ([1]; SKBR3, CTG): 96.87%
- IC50 (MDA-MB-468 (HER2-); Homo sapiens, MDA-MB-468, read-out: IC50 (nM) MDA-MB-468): 0.183 nM
- Maximum inhibition rate (%) MDA-MB-468 (MDA-MB-468 (HER2-); MDA-MB-468, CTG): 88.01%
- Plasma concentration C5 min [2]: 82.1 ng/mL
- Maximum inhibition rate (%) A549 ([3]; A549, CTG): 81.34%
- IC50 ([3]; Homo sapiens, A549, read-out: IC50 (nM) A549): 0.515 nM
